Results from patent US20240197712A1, “TGF-BETA INHIBITION FOR IMMUNODEFICIENCY VIRUS REACTIVATION FROM LATENCY, ENHANCEMENT OF IMMUNODEFICIENCY VIRUS-SPECIFIC RESPONSES AND IMMUNODEFICIENCY VIRUS CURE” (Northwestern University, priority 2022, published 2024).

Legend:
primary CD4+ T cells = assay: Primary CD4+ T cell model of HIV-1 latency, p24 ICS; assay type: cell-based, human; settings: primary CD4+ T cells infected with HIV ADA; PMA 100 ng/ml; TGF-β1 10 ng/ml or galunisertib 1 μM
Experimental: Next, the impact of TGF-β1 on a primary model of HIV-1 latency was tested using freshly isolated CD4+ T cells. The experiment was based on the model by Berkhout and colleagues (50) with some modifications (FIG. 1F). Specifically, CD4+ T cells were isolated from HIV-1 uninfected, de-identified donor PBMC and activated them with PHA and IL-2 for 3 days before infection via spinoculation with HIV ADA. After extensive wash of the viral inoculum, cells were cultured 48 hrs in presence of T20 (enfuvirtide) to avoid viral spread beyond the cells with initial integrations. The overall initial infection achieved was very low despite the spinoculation step (˜0.1% of p24-gag+ cells, FIGS. 3A-3B).
Blood from de-identified donors was obtained from the New York Blood Bank and used as source of CD4 T cells for the primary model of HIV latency in vitro. Total CD4+ T cells were isolated with the CD4 T cells isolation kit (Miltenyi) and activated with 5 μg/ml of PHA and 50 U/ml of IL-2 for 3 days. After washing out the PHA, cells were infected with 200TCID50 of HIV-ADA (NIH HIV Reagent Program) in 12 or 24 wells/plates and spinoculated at 1200 g for 2 hrs at 25° C. After additional 3 hrs of incubation at 37° C., viral inoculum was washed and cells plated in presence of T20 (Enfurtivide acetate salt, 1 μM NIH AIDS reagent program). […]

[1] = tested on: SIVmac239 gag and env peptides; assay: Anti-SIV T cell responses, intracellular cytokine staining; assay type: in vivo, rhesus macaques; settings: before vs after treatment
Experimental: Frozen PBMC collected right before the first galunisertib administration and right after were thawed in AIM V medium (Thermo Fisher) plated on a plate pre-coated with 2.5 μg/ml goat anti mouse (GAM) IgGs and cross linked with 10 μg/ml anti-CD28 and anti-CD49d antibodies (Sigma Aldrich). Cells were stimulated either with SIVMAC239 GAG peptide pool (2 μg/ml) or with SIVMAC239 ENV peptide pool (2 μg/ml AIDS reagents program, Division of AIDS, NIAID, NIH) or the same volume of DMSO as baseline control. Pooled cells stimulated with 1 μg/ml PMA/Ionomycin were used a positive activation control. One hour later 10 μg/ml BFA and monensin (GolgiStop, BD Biosciences) were added to each well. After 5 hours, cells were transferred to a FACS plate and stained with the LIVE/DEAD Aqua viability dye (Thermo Fisher Scientific) and antibodies against cell surface and cytokines (Table 2).

TGF-β = assay: Total TGF-β in plasma by ELISA; assay type: in vivo, rhesus macaques; settings: baseline vs W1/2
Source text: FIGS. 16A-16B. […] (FIG. 16A) The concentration of total TGF-β in the plasma before and after galunisertib as detected by ELISA is shown. Wilcoxon matched-pairs test was used to compare BL with W1/2 data, Significant p-value of α<0.05 (*) is shown. (FIG. 16B) No correlation is present between the concentration of TGF-β before treatment in blood and the change in Gut-SUVTot in each animal after galunisertib treatment (p=0.199; Person R=0.304).

HIV-Bal = assay: In vitro HIV-1 replication in SupT1 cells and PHA-PBMC (p24 ELISA); assay type: cell-based; settings: SupT1 cells and PBMC from healthy donors, different concentrations of galunisertib
Experimental: For control experiments of the impact of galunisertib on HIV infection of SupT1 cells and PBMC, SupT1 cells and PHA-activated PBMC were cultured respectively at 1 and 2 millions/ml in R10 (in presence of 20 U/ml of IL-2 for the PBMC) and infected with 50 TCID50/10^6 cells of HIV-Bal (0.01 MOI). HIV replication was monitored by p24 ELISA.

SIV-env = assay: Anti-envelope antibody titers (ELISA); assay type: in vivo, rhesus macaques; settings: in 3 of the 7 macaques
Experimental: 96-well plates were coated with the SIV gp130 Recombinant protein 595 (AIDS reagents program, Division of AIDS, NIAID, NIH at 1 μg/ml in coating carbonate buffer 2 hours at room temperature (RT). After washing the plates 4 times with washing buffer, the plates were incubated in blocking buffer (2% BSA in PBS) overnight. Plates were washed and dilutions of test sera or control sera were added to the plate starting at 1:50. Sera were incubated at 37° C. for 30′ and plate washed and detected with anti-Rhesus IgG HRP (NHPRR) 30′ at 37° C. After washing and substrate incubation at RT for 30′ plates were read at 450/650 nm.

ACH-2 cells = assay: PMA-induced HIV reactivation in ACH-2 cells, intracellular p24 staining; assay type: cell-based
Experimental: ACH2 cells and U1 cells were obtained through the NIH HIV Reagent Program, Division of AIDS, NIAID, NIH (contributed by Dr. Thomas Folks). […] In the HIV latency reactivation conditions, PMA (Phorbol 12-myristate 13-acetate, SigmaAldrich) was added at 100 ng/ml together with galunisertib or TGF-β1. After 18 hrs, cells were stained intracellularly for p24 using the KC57 antibody (NIH HIV Reagent Program) as previously described (74).

U1 cells = assay: DC-driven HIV reactivation from U1 cells (moDC co-culture); assay type: cell-based; settings: moDCs treated with TGF-β1 10 ng/ml for last 2 days, with or without galunisertib; 18 hrs co-culture
Experimental: CD14^+ cells were isolated from PBMC using the Miltenyi CD14^+ beads. Monocyte-derived DCs (moDCs) were obtained from CD14+ cells cultured in GM-CSF and IL-4 as previously described (55). At day 4 of moDCs differentiation, TGF-β1 (10 ng/ml R&D systems) was added to the moDCs to generate the TGF-β-DCs (or both TGF-β1 and galunisertib). At day 6, 2 days after TGF-1 addition, moDCs were phenotyped (in 3 donors; See Table 2 for antibodies list) and co-cultured with eFluor670 (eBioscience)-labelled U1 at 3:1 U1:DC ratio (5 donors). After 18 hrs of co-culture, cells were stained for p24 intracellularly as described above.

## Cc1cccc(-c2nn3c(c2-c2ccnc4ccc(C(N)=O)cc24)CCC3)n1 [galunisertib, Galunisertib]
Primary CD4+ T cells
  PMA-induced frequency of p24-gag+ cells: did not alter
[1]
  frequency of cells producing multiple cytokines: no increase
[1]; gag and env peptides stimulation
  frequency of IFN-γ producing CD4 and CD8 T cells: significant increase
TGF-β
  levels of TGF-β in blood after treatment: increases in the levels of TGF-β
HIV-Bal
  HIV-1 growth curves: no impact
SIV-env
  increase in the titer of SIV-env specific antibodies: 0.5 to 1 Log
ACH-2 cells; ACH-2 cells, TGF-β1 + galunisertib 1 μM
  frequency of p24-gag+ cells in TGF-β1-treated cultures: restore frequency of p24-gag+ cells
ACH-2 cells; ACH-2 cells, galunisertib in absence of exogenous TGF-β1, medium with FBS
  frequency of p24-gag+ cells versus PMA-stimulated cultures: increase it above PMA-stimulated cultures
ACH-2 cells; control experiments, U1 and ACH-2, no FBS
  effect on p24+ cells in X-Vivo 15 medium without FBS: absent
U1 cells
  frequency of p24-gag+ U1 cells in cocultures with TGF-β1-treated DCs versus untreated DCs: blocked
